According to patent US4035481A, “Antibiotic A-28086 and process for production thereof” (Eli Lilly and Company, priority 1976, dated 1977):
Values after ≈ are worked out from the molar mass of the structure shown.

Tests used:
[1] = test system: rumen flora; test: In vitro rumen fluid incubation, volatile fatty acid production; parameters: species or system steer; details: 1 ppm in rumen fluid, 16 hours at 38° C
Description: As discussed hereinabove, efficiency of carbohydrate utilization in ruminants is increased by treatments which stimulate the animal's rumen flora to produce propionate compounds rather than acetate or butyrate compounds. The efficiency of feed use can be monitored by observing the production and concentration of propionate compounds in the rumen, using the following methods:
Rumen fluid is obtained from a steer with a surgically-installed fistula opening into the rumen. The steer is maintained on a high-grain ration. A sample of rumen fluid is strained through four layers of cheesecloth, and the filtrate is collected. The particulate matter retained by the cheesecloth is resuspended in enough physiological buffer to return it to the original volume of the rumen fluid, and this suspension is strained again. The buffer used has the following composition:
The two filtrates are combined and allowed to stand until particulate matter separates to the top. The clear layer is separated, diluted with the same buffer (1:1) and then adjusted to between pH 6.8 to 7.0.
The diluted rumen fluid (10 ml) is placed in a 25-ml flask with 40 mg of the above-described feed, an additional 1 mg of soybean protein, and the compound to be tested. Four replicate flasks are used per treatment. Two sets of four control flasks each are also employed. A zero-time control and an incubated 16-hour control are used. All test flasks are incubated for 16 hours at 38° C. […] The samples are allowed to settle, and the supernatants are analyzed by gas chromatography for propionate, acetate, and butyrate compounds.

[2] = Electrometric titration (pKa of titratable group); details: 80% aqueous dimethylformamide
[3] = test system: M. hyosynoviae; test: In vitro broth-dilution MIC, Mycoplasma; type: cell-based, Mycoplasma hyosynoviae
Description: (§1) Activity against Mycoplasma is another useful aspect of the antimicrobial activity of the A-28086 compounds. Mycoplasma species, also known as pleuropneumonia-like (PPLO) organisms, are pathogenic to man and various animals. Agents active against PPLO organisms are especially needed by the poultry industry. The minimal inhibitory concentrations (MIC) of antibiotic A-28086 factor A against various Mycoplasma species, as determined by in vitro broth-dilution studies, are summarized in Table VII below: […]

[4] = test system: Transmissible Gastro-enteritis virus; type: cell-based; details: tissue-culture test
[5] = test system: M. synoviae; test: In vitro broth-dilution MIC, Mycoplasma; type: cell-based; details: Mycoplasmopsis synoviae
Description: as §1

[6] = test system: M. hyorhinis; test: In vitro broth-dilution MIC, Mycoplasma; type: cell-based; details: Mesomycoplasma hyorhinis
Description: as §1

[7] = test system: M. gallisepticum; test: In vitro broth-dilution MIC, Mycoplasma; type: cell-based; details: Mycoplasmoides gallisepticum
Description: as §1

[8] = Solubility in organic solvents and water; type: physicochemical
[9] = test system: Clostridium ramosum; test: Agar-dilution MIC, anaerobic bacteria; type: cell-based; details: Thomasclavelia ramosa, 24-hour incubation
Description: (§2) The minimal inhibitory concentrations (MIC) at which A-28086 factor A inhibits various anaerobic bacteria, determined by standard agar-dilution assay, are summarized in Table VI. Endpoints were read after 24-hour incubation.

[10] = test system: Peptostreptococcus intermedius; test: Agar-dilution MIC, anaerobic bacteria; type: cell-based; details: 24-hour incubation
Description: as §2

[11] = test system: Bacteroides fragilis ssp. vulgatis No. 1563; test: Agar-dilution MIC, anaerobic bacteria; type: cell-based; details: 24-hour incubation
Description: as §2

[12] = test system: Bacteroides fragilis ssp. thetaiotacmicron; test: Agar-dilution MIC, anaerobic bacteria; type: cell-based; details: 24 h
Description: as §2

[13] = test system: Fusobacterium symbiosum; test: Agar-dilution MIC, anaerobic bacteria; type: cell-based; details: 24-hour incubation
Description: as §2

[14] = test system: Fusobacterium necrophorum; test: Agar-dilution MIC, anaerobic bacteria; type: cell-based; details: 24-hour incubation
Description: as §2

[15] = test system: Bacteroides fragilis ssp. fragilis; test: Agar-dilution MIC, anaerobic bacteria; type: cell-based; details: 24-hour incubation
Description: as §2

[16] = test system: Clostridium septicum bovine; test: Agar-dilution MIC, anaerobic bacteria; type: cell-based; details: 24-hour incubation
Description: as §2

[17] = test system: Veillonella alcalescens; test: Agar-dilution MIC, anaerobic bacteria; type: cell-based; details: Veillonella parvula, 24-hour incubation
Description: as §2

[18] = test system: Clostridium inocuum; test: Agar-dilution MIC, anaerobic bacteria; type: cell-based; details: 24-hour incubation
Description: as §2

[19] = test system: Eubacterium aerofaciens; test: Agar-dilution MIC, anaerobic bacteria; type: cell-based; details: Collinsella aerofaciens, 24-hour incubation
Description: as §2

[20] = test system: Peptococcus anaerobius; test: Agar-dilution MIC, anaerobic bacteria; type: cell-based; details: 24-hour incubation
Description: as §2

[21] = test system: Clostridium septicum; test: Agar-dilution MIC, anaerobic bacteria; type: cell-based; details: 24-hour incubation
Description: as §2

[22] = test system: Actinomyces bovis; test: Agar-dilution MIC, anaerobic bacteria; type: cell-based; details: 24-hour incubation
Description: as §2

[23] = test system: Propionibacterium acnes 44; test: Agar-dilution MIC, anaerobic bacteria; type: cell-based; details: Cutibacterium acnes, 24-hour incubation
Description: as §2

[24] = test system: Bacteroides fragilis ssp. vulgatis 1211; test: Agar-dilution MIC, anaerobic bacteria; type: cell-based; details: 24-hour incubation
Description: as §2

[25] = test system: Propionibacterium acnes 79; test: Agar-dilution MIC, anaerobic bacteria; type: cell-based; details: Cutibacterium acnes, 24-hour incubation
Description: as §2

[26] = test system: Saccharomyces pastorianum ATCC2366; test: Disc-diffusion zone of inhibition, Saccharomyces pastorianum ATCC2366; type: cell-based
[27] = test system: Clostridium perfringens; test: microbe, parasite or virus in culture; type: cell-based; details: 24 h
[28] = test system: Staphylococcus aureus; test: Disc-diffusion zone of inhibition, Staphylococcus aureus; type: cell-based; details: 6 mm pads, 1 mg/ml
[29] = test system: Bacillus subtilis ATCC6633; test: Disc-diffusion zone of inhibition, Bacillus subtilis ATCC6633; type: cell-based; details: 6 mm pads, 1 mg/ml
[30] = test system: Mycobacterium avium ATCC7992; test: Disc-diffusion zone of inhibition, Mycobacterium avium ATCC7992; type: cell-based; details: 6 mm pads, 1 mg/ml
[31] = Acute toxicity in mice, intraperitoneal; details: mouse, in vivo, ip
[32] = test system: Eimeria brunetti; test: Anticoccidial activity in chicks challenged with Eimeria brunetti (Table IX); type: in vivo, broiler cockerels; details: 0.005 % in feed
Description: ^1 Four replicates, 5 broiler cockerels each

[33] = test system: Sarcina lutea ATCC9341; test: Disc-diffusion zone of inhibition, Sarcina lutea ATCC9341; type: cell-based; details: Micrococcus luteus, 6 mm pads, 1 mg/ml
[34] = test system: sheep; test: Feed-utilization efficiency in sheep; type: in vivo; details: 56 days
[35] = test system: Fusarium moniliforme; test: Disc-diffusion zone of inhibition, Fusarium moniliforme; type: cell-based; details: Fusarium verticillioides; 6 mm pads, 1 mg/ml
[36] = test system: Candida tropicalis; test: Disc-diffusion zone of inhibition, Candida tropicalis; type: cell-based; details: 6 mm pads, 1 mg/ml
[37] = test system: M. hypopneumoniae; test: In vitro broth-dilution MIC, Mycoplasma; type: cell-based, Mycoplasma hypopneumoniae
Description: as §1

[38] = Microbiological activity of A-28086-I

CCCC(=O)OC1C=CC2(OC(C(CC)C(=O)C(C)C(O)C(C)C3OC(C(CC)C(=O)O)C(C)CC3C)C(C)CC2C)OC12CCC(C)(C1CCC(O)(CC)C(C)O1)O2 (centres unmarked)
Ratio of Treated to Control, Molar % acetate [1]: 0.91
Ratio of Treated to Control, Molar % butyrate [1]: 0.81
Ratio of Treated to Control, Total VFA mM/1 [1]: 1.19

CCCCCC(=O)OC1C=CC2(OC(C(CC)C(=O)C(C)C(O)C(C)C3OC(C(CC)C(=O)O)C(C)CC3C)C(C)CC2C)OC12CCC(C)(C1CCC(O)(CC)C(C)O1)O2 (centres unmarked)
Ratio of Treated to Control, Molar % acetate [1]: 0.86
Ratio of Treated to Control, Molar % butyrate [1]: 0.97
Ratio of Treated to Control, Total VFA mM/1 [1]: 0.99

CCC(=O)OC1C=CC2(OC(C(CC)C(=O)C(C)C(O)C(C)C3OC(C(CC)C(=O)O)C(C)CC3C)C(C)CC2C)OC12CCC(C)(C1CCC(O)(CC)C(C)O1)O2 (centres unmarked)
Ratio of Treated to Control, Molar % acetate [1]: 0.90
Ratio of Treated to Control, Molar % butyrate [1]: 0.68
Ratio of Treated to Control, Total VFA mM/1 [1]: 1.25

CCCCC(=O)OC1C=CC2(OC(C(CC)C(=O)C(C)C(O)C(C)C3OC(C(CC)C(=O)O)C(C)CC3C)C(C)CC2C)OC12CCC(C)(C1CCC(O)(CC)C(C)O1)O2 (centres unmarked)
Ratio of Treated to Control, Molar % acetate [1]: 0.92
Ratio of Treated to Control, Molar % butyrate [1]: 0.79
Ratio of Treated to Control, Total VFA mM/1 [1]: 1.18

CCC(C(=O)O)C1OC(C(C)C(O)C(C)C(=O)C(CC)C2OC3(C=CC(OC(C)=O)C4(CCC(C)(C5CCC(O)(CC)C(C)O5)O4)O3)C(C)CC2C)C(C)CC1C (centres unmarked) [A-28086 factor A acetyl ester derivative]
Ratio of Treated to Control, Molar % acetate [1]: 0.79
Ratio of Treated to Control, Molar % butyrate [1]: 0.76
Ratio of Treated to Control, Total VFA mM/1 [1]: 1.04
pKa [2]: 8.5

CCC(C(=O)O)C1OC(C(C)C(O)C(C)C(=O)C(CC)C2OC3(C=CC(O)C4(CCC(C)(C5CCC(O)(CC)C(C)O5)O4)O3)C(C)CC2C)C(C)CC1C (centres unmarked) [A-28086 factor A]
MIC [3]: 6.25 µg/mL (≈ 8.17 µM)
antiviral activity [4]: active
MIC [5]: 6.25 µg/mL (≈ 8.17 µM)
MIC [6]: 12.5 µg/mL (≈ 16.3 µM)
MIC [7]: 12.5 µg/mL (≈ 16.3 µM)
solubility in organic solvents ([8]; methanol, ethanol, dimethylformamide, dimethyl sulfoxide, ethyl acetate, chloroform, acetone, benzene): soluble
solubility in nonpolar organic solvents ([8]; such as hexane): only slightly soluble
solubility in water ([8]; water): insoluble
MIC [9]: 4 µg/mL (≈ 5.23 µM)
MIC [10]: 16 µg/mL (≈ 20.9 µM)
MIC [11]: 8 µg/mL (≈ 10.5 µM)
MIC [12]: 8 µg/mL (≈ 10.5 µM)
MIC [13]: < 0.5 µg/mL
MIC [14]: 8 µg/mL (≈ 10.5 µM)
MIC [15]: 8 µg/mL (≈ 10.5 µM)
MIC [16]: < 0.5 µg/mL
MIC [17]: 16 µg/mL (≈ 20.9 µM)
MIC [18]: < 0.5 µg/mL
MIC [19]: 1 µg/mL (≈ 1.31 µM)
MIC [20]: < 0.5 µg/mL
MIC [21]: < 0.5 µg/mL
MIC [22]: < 0.5 µg/mL
MIC [23]: 16 µg/mL (≈ 20.9 µM)
MIC [24]: 2 µg/mL (≈ 2.61 µM)
MIC [25]: 2 µg/mL (≈ 2.61 µM)
zone of inhibition at 1000 µg/mL [26]: 17 mm
MIC [27]: < 0.5 µg/mL
Ratio of Treated to Control, Molar % acetate [1]: 0.94
Ratio of Treated to Control, Molar % butyrate [1]: 0.87
Ratio of Treated to Control, Total VFA mM/1 [1]: 1.26
zone of inhibition at 1000 µg/mL [28]: 19 mm
zone of inhibition at 1000 µg/mL [29]: 28 mm
zone of inhibition at 1000 µg/mL [30]: 12 mm
LD50 [31]: 7.15 mg/kg
Average Lesion Score [32]: 1.2
Oocysts Passed Percent Reduction [32]: 58%
Percent Mortality [32]: 0%
Percent Weight Gain [32]: 88%
zone of inhibition at 1000 µg/mL [33]: 26 mm
Percent Improvement ([34]; 9 g per ton of feed): 12%
Percent Improvement ([34]; 18 g per ton of feed): 1%
zone of inhibition at 1000 µg/mL [35]: 12 mm
pKa [2]: 7.9
zone of inhibition at 1000 µg/mL [36]: 14 mm
MIC [37]: 6.25 µg/mL (≈ 8.17 µM)

CCC(C(=O)OC)C1OC(C(C)C(O)C(C)C(=O)C(CC)C2OC3(C=CC(O)C4(CCC(C)(C5CCC(O)(CC)C(C)O5)O4)O3)C(C)CC2C)C(C)CC1C (centres unmarked) [A-28086-I]
microbiological activity [38]: not microbiologically active
